In patent publication EP1743628A1, “Cosmetic composition containing red algae extract comprising a combination of floridoside and isethionic acid” (Simer, priority 2005, dated 2007):

Tests used:
[1] = tested on: fibres musculaires en coculture avec des explants de moelle épinière; format: cell-based, cellules musculaires humaines; embryons de rat Wistar
[2] = tested on: transglutaminase kératinocytaire (TGk); experiment: Keratinocyte transglutaminase (TGk) activity in NHEK cultures (differentiation)
[3] = tested on: stratum corneum (SC) délipidisé; experiment: Water retention (water-holding capacity, WHC) of delipidised stratum corneum after immersion in aqueous test solutions; parameters: species or system porc; conditions: 8 h immersion, après 6 heures à 25°C et 40% RH
Procedure: On étudie l'hydratation du stratum corneum (SC) délipidisé et traité par différentes solutions aqueuses.
Le but de cette étude est de montrer si l'application cutanée d'une solution aqueuse d'extrait de mastocarpus (10% de matière sèche), de floridoside pur à 3,8%, d'acide iséthionique pur à 1,9%, d'un mélange de floridoside pur à 3,8% et d'acide iséthionique pur à 1,9%, modifie significativement l'état d'hydratation du SC délipidisé puis conservé dans une enceinte à 25°C et à 40 % d'humidité relative (RH).
Dans cette étude, des échantillons de SC, isolés de l'épiderme de morceaux d'oreilles de porc par un traitement à la trypsine (1% dans un tampon phosphate; pH=7,4) puis délipidisés par un solvant (acétone par exemple), ont été immergés pendant 8 heures dans une solution aqueuse d'extrait de mastocarpus 10%, de floridoside pur à 3,8%, d'acide iséthionique pur à 1,9%, d'un mélange de floridoside pur à 3,8% et d'acide iséthionique pur à 1,9%, (3 échantillons de SC par produits). Trois échantillons de SC délipidisé ont été traités par de l'eau ultra pure (contrôle, 18 MΩ), pendant 8 heures. Après traitement, ces échantillons ont été pesés puis placés dans une étuve maintenue à 25°C et à 40% RH. La masse des échantillons de SC traités par chacune des solutions a été déterminée après 1h; 2h; 3h; 4h; 5h et 6h de conservation à 25°C et à 40% RH. […]

[4] = acide rétinoïque, concentration not printed in this table (10^-7M per Tableau 4)

## CCCC(C)(COC(N)=O)COC(=O)NC(C)C (centres unmarked) [carisoprodol]
[1]; 10^-3 M (0,03%), après 1 minute et 2 heures d'incubation
  fréquence de contraction des 3 fibres musculaires sélectionnées: a bloqué
[1]; 10^-3 M, 48 heures d'incubation, apport de glucose
  activité contractile après recharge en glucose: n'a pas permis aux fibres musculaires de reprendre une activité contractile
[1]; carisoprodol 10^-3 M, après changement de milieu et 2 heures sans produit, relative to initial frequency
  pourcentage moyen de contraction des trois fibres (récupération): 111%

## CC1=C(/C=C/C(C)=C/C=C/C(C)=C/CO)C(C)(C)CCC1 [Rétinol]
[2]; 10^-6 M
  % (activité TGk/µg de protéines, par rapport au témoin): 72%
  % témoin (activité TGk): 54%
  Activité TGk (cpm): 465 cpm
  activité/µg (activité TGk par rapport à la quantité de protéines): 142
  réduction de l'activité TGk: 48%

## [Ca+2].[Cl-].[Cl-] [Chlorure de calcium]
[2]; 1,5 mM
  % (activité TGk/µg de protéines, par rapport au témoin): 317%
  % témoin (activité TGk): 394%
  activité/µg (activité TGk par rapport à la quantité de protéines): 626
[2]; 1,5mM, sans calcium dans le milieu
  Activité TGk (cpm): 3408 cpm
[2]; chlorure de calcium 1,5 mM
  activité transglutaminase plus forte en milieu calcium qu'en milieu sans calcium: ~4 fois

## OCC(CO)O[C@H]1O[C@H](CO)[C@H](O)[C@H](O)[C@H]1O [floridoside, 2-O-glycérol-α-D-galactopyranoside]
[3]; floridoside 3,8%, vs eau
  état de déshydratation des échantillons de SC: n'était pas significativement différent

## CC1=C(/C=C/C(C)=C/C=C/C(C)=C/C(=O)O)C(C)(C)CCC1 [Acide rétinoïque]
[2]; 10^-7M
  % témoin (activité TGk): 52%
  Activité TGk (cpm): 447 cpm
  réduction de l'activité TGk: 46%
[2]; [4]
  % (activité TGk/µg de protéines, par rapport au témoin): 67%
  activité/µg (activité TGk par rapport à la quantité de protéines): 131

## O=S(=O)(O)CCO [acide iséthionique]
[3]; acide iséthionique 1,9%, vs contrôle
  état de déshydratation des échantillons de SC: moins déshydratés que les échantillons contrôles
